Measured values reported in patent US10772885B2, “Composition for treating ocular diseases and methods of usage and making” (REYOUNG (SUZHOU) BIOLOGY SCIENCE & TECHNOLOGY CO., LTD., priority 2016, dated 2020).

System: CNV
Assay: Laser photocoagulation-induced CNV in rats (FP/FFA, fluorescein leakage grading)
Type: in vivo, Brown Norway (BN) rats
Conditions: for Mean fluorescein leakage score vs model group / Ratio of grade 3 light spots vs model group: after treatment
Method: Specific-pathogen-free (SPF) grade Brown Norway (BN) rats, half male and half female, were treated with fundus laser photocoagulation, the date of which was counted as D0. At D8, 32 rats with similar areas of fluorescence leakage were selected, separated to 8 groups, with each group including 4 rats (half male and half female): • Group 1 is a model group without any treatment. • Group 2 is a positive control group, in which Conbercept was injected into the vitreous cavity of the rats' eyes at the dosage of 50 μg/eye and […]. • In group 3, both eyes of the rats were administered with nintedanib ethanesulfonate at the dosage of 125 μg/eye and 6 times per day from day 8 and day 15 (D8˜D15). • In group 4, both eyes of the rats were administered with nintedanib ethanesulfonate at the dosage of 25 μg/eye and 6 times per day from day 8 and day 15 (D8˜D15). • In group 5, both eyes of the rats were administered with nintedanib ethanesulfonate at the dosage of 5 μg/eye and 6 times per day from day 8 and day 15 (D8˜D15). • In group 6, both eyes of the rats were administered with nintedanib ethanesulfonate at the dosage of 2.5 μg/eye and 6 times per day from day 8 and day 15 (D8˜D15). • In group 7, both eyes of the rats were administered with nintedanib ethanesulfonate at the dosage of 0.5 μg/eye and 6 times per day from day 8 and day 15 (D8 D15). • In […], both eyes of the rats were administered with nintedanib ethanesulfonate at the dosage of 0.1 μg/eye and 6 times per day from day 8 and day 15 (D8 D15).
All rats were tested with fundus photography (“FP”) and fundus fluorescein angiography (“FFA”) one day before administration and 8 days after administration. The degree of CNV was graded according to the degree of fluorescence leakage. The results were used to evaluate the effect of nintedanib ethanesulfonate on rat CNV, the results of which are shown in FIG. 2.
The ratio is calculate by comparing the early-phase and last-phase fluorescein angiograms. The fluorescence leakage of the light spots was graded as follows: grade 0 (no leakage); grade 1 (slight leakage, leakage area is 1%-50% of the light spot size); grade 2 (moderate leakage, leakage area is 50%-100% of the light spot size); grade 3 (strong leakage, leakage area is larger than the light spot size). The ratios of light spots for certain grade were calculated as follows: Ratio of light spot (%)=(the number of light spot at certain grade÷the sum of four kinds of light spots)×100.
The mean fluorescein leakage score is calculated as follows: Mean fluorescein leakage score=[(number of grade 0 light spot×0)+(number of grade 1 light spot×1)+(number of grade 2 light spot×2)+(number of grade 3 light spot×3)]÷the sum of four kinds of light spots

[1] = groups 3-6 (125, 25, 5, 2.5 μg/eye)
[2] = positive control group, 50 μg/eye into the vitreous cavity

Compound | Ratio of grade 1 light spots vs positive control group (all groups) | Ratios of light spots, mean fluorescein leakage score and development of CNV (eye drops at 125, 25, 5, 2.5, 0.5 μg/eye) | Ratio of grade 1 light spots vs positive control group (fifth group (5 μg/eye), p≤0.05) | Leakage vs positive control group (group 5 (5 μg/eye), p≤0.05) | Ratio of grade 3 light spots vs positive control group [1] | Mean fluorescein leakage score vs model group [1] | Ratio of grade 3 light spots vs model group [1] | Ratio of grade 1 light spots vs model group (groups 3-6 (125, 25, 5, 2.5 μg/eye), p≤0.05) | Adverse reactions (groups 3 and 4 (125 and 25 μg/eye, 6 times per day, D8-D15), some of the animals) | Inhibition of CNV in rats (groups 4-6 (25, 5, 2.5 μg/eye), 1 week after photocoagulation) | Mean fluorescein leakage score (groups 7 and 8 (0.5 and 0.1 μg/eye)) | Adverse reactions (other groups (5, 2.5, 0.5, 0.1 μg/eye, 6 times per day, D8-D15)) | Ratio of the level 0 and level 2 light spot vs positive control group (other groups, p>0.05) | Inhibition of leakage vs positive control group (printed: first group) | Leakage caused by CNV (rat, in vivo) | Mean fluorescein leakage score vs model group [2] | Ratio of grade 3 light spots vs model group [2]
COC(=O)c1ccc2c(c1)NC(=O)/C2=C(\Nc1ccc(N(C)C(=O)CN2CCN(C)CC2)cc1)c1ccccc1 [nintedanib ethanesulfonate] | increased | can inhibit | significantly increased | significantly decreased | lower | significantly decreased | significantly decreased | increased | corneal opacity | significantly inhibited the CNV | no statistically significant difference | did not experience any significantly adverse reactions | no significant difference | slightly stronger | can inhibit the leakage caused by CNV |  | 
Conbercept: Monoclonal antibody or fusion protein targeting VEGF, developed by a Chinese company and launched in 2013; positive control |  |  |  |  |  |  |  |  |  |  |  |  |  |  |  | significantly decreased | significantly decreased
